Test results reported in paper PMC7224301, “Methodology for the identification of small molecule inhibitors of the Fanconi Anaemia ubiquitin E3 ligase complex” (Scientific Reports, 2020).

Tests used:
SUM149.B1.S* cells = experiment: Synthetic lethal cell assay (SRB cell viability), BRCA1-proficient control cells; type: cell-based, human; settings: SUM149.B1.S* (BRCA1 reversion), 10 µM, 72 h
Text: (§1) Therefore, we tested our preliminary inhibitors for the ability to kill BRCA1-deficient cells preferentially over isogenic BRCA1-proficient controls. To achieve this we exploited the triple negative breast cancer cell line SUM149[48] with a homozygous loss of function mutation in BRCA1 (c.2288delT, p.N723fsX13) and the daughter cell line, SUM149.B1.S* with one allele containing a secondary restoration of function mutation (an 80-bp BRCA1 deletion, c.[2288delT;2293del80])[49]. Twenty-five compounds were tested at 10 µM for preferential cytotoxicity in the BRCA1-deficient SUM149 (Fig. 5).
(§2) SUM149 parental cell line and SUM149 B1.S* cell lines[49] were seeded in a 96-well plate with 3000 cells per well. After 24 h, media was removed, and the cells were treated with 10 µM of each compound in triplicate in antibiotic free media and left for 72 h. Cell were fixed with 1% trichloroacetic acid and stained with sulphorhodamine B (SRB). Absorbance of wells were read at 550 nm.

SUM149 cells = experiment: Synthetic lethal cell assay (SRB cell viability), BRCA1-deficient cells; type: cell-based, human; settings: 10 µM, 72 h
Text: as §1, §2

[1] = system: FANCD2 foci in SUM149 parental cells; experiment: Nuclear FANCD2 foci formation (immunofluorescence), SUM149 parental; type: cell-based, human; settings: for effect on FANCD2 foci formation: SUM149 parental cells (BRCA1-deficient), 1 µM; for FANCD2 foci: 2 days exposure, DMSO = 3.80
Procedure: FANCD2 foci formation is often used as an indicator of FA core complex functionality[40],[43]. Therefore, we selected 11 compounds to test at 1 µM in 384-well format for their ability to reduce FANCD2 foci formation in SUM149 parental BRCA1-deficient cells. […] An inhibitor of the FA pathway could exploit this dependency of FANCD2 activity to synergise with PARP inhibitors.
Nuclear FANCD2 foci were measured in high throughput by quantitating DAPI stained cell nuclei of either SUM149 or SUM149 B1.S* cell lines using automated confocal imaging (CX7 LZR, ThermoFisher Scientific). […] FANCD2 foci were detected with immunofluorescence using rabbit anti-human FANCD2 (abcam, ab108928).

[2] = system: T1, FA core complex-mediated FANCD2 mono-ubiquitination; experiment: FANCD2 mono-ubiquitination proximity assay (AlphaScreen), inhibitor format; type: biochemical, human proteins; Xenopus laevis FANCD2 and FANCI; settings: at 0.3 µM
T1 construct: made in house; host or cells: High-Five insect cells (FANC-B-L-100, FANCD2-FANCI); E. coli BL21 (DE3) (UBE2T); UBE1 and ubiquitin from Boston Biochem
T1 sequence (Q9NW38 whole entry): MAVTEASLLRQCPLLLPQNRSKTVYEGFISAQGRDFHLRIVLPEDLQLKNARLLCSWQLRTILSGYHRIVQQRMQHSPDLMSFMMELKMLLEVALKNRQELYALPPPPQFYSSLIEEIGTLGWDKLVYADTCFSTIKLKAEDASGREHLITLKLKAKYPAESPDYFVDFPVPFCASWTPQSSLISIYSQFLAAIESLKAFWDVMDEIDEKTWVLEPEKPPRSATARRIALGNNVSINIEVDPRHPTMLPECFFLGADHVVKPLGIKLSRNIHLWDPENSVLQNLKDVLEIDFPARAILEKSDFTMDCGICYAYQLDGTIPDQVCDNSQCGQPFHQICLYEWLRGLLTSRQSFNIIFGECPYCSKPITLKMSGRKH
T1 sequence (Q8NB91 whole entry, further chain): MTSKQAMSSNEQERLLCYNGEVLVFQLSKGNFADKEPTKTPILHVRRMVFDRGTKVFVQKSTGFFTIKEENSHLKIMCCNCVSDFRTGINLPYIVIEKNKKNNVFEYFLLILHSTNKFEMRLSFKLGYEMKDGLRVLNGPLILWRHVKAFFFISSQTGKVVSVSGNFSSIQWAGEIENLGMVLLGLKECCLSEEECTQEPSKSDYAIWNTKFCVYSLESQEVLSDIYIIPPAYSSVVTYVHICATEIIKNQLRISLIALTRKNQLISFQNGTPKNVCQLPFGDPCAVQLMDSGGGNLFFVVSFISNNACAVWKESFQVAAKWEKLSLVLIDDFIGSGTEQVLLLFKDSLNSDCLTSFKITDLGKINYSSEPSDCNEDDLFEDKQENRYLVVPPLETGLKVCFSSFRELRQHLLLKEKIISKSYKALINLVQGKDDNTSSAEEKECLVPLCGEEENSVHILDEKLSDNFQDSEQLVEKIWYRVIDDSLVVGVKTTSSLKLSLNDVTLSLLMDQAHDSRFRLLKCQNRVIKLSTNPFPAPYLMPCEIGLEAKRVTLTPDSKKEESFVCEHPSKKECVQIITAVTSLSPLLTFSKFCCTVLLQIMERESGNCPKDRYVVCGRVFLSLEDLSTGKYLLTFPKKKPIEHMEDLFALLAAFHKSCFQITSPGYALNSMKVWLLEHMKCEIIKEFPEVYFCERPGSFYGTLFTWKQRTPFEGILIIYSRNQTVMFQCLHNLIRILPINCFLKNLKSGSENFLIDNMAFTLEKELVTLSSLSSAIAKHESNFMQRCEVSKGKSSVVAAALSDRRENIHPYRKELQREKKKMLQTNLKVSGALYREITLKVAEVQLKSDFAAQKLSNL
T1 sequence (Q0VG06 whole entry, further chain): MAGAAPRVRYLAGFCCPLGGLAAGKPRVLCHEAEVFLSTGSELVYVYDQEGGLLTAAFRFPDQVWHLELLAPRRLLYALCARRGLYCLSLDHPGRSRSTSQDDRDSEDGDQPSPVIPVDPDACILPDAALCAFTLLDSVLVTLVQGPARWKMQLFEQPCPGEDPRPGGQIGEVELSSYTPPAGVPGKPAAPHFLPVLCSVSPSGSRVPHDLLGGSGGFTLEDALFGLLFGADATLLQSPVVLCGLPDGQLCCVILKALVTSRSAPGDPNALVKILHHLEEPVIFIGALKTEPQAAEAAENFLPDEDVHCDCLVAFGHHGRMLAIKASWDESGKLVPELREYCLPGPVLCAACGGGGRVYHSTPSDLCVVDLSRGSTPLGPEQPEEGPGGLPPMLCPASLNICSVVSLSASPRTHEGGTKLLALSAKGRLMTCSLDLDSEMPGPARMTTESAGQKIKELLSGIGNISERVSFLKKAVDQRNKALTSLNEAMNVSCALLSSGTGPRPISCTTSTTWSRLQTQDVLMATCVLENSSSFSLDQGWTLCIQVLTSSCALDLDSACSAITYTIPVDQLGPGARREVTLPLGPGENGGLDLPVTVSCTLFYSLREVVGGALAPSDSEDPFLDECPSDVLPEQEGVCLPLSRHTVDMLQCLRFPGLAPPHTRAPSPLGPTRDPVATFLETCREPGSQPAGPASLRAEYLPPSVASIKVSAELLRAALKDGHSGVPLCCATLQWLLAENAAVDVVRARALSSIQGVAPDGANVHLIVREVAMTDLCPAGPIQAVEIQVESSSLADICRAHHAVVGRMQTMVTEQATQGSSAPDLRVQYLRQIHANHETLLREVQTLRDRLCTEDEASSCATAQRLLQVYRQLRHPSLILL
T1 sequence (Q00597 whole entry, further chain): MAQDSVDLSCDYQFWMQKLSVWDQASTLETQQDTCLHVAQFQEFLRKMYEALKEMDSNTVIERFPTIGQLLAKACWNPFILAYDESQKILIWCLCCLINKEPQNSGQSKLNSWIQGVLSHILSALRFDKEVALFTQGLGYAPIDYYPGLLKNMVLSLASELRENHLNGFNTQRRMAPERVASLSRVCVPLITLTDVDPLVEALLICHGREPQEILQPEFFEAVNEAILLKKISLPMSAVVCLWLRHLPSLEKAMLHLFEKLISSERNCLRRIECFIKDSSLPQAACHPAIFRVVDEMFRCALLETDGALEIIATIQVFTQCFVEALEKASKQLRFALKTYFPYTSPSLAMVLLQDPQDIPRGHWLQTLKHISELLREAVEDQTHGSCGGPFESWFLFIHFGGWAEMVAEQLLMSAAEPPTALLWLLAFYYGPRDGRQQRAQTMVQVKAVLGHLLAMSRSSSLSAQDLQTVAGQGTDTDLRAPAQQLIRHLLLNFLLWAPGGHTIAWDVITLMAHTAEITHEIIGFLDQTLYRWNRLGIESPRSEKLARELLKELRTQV
T1 sequence (Q9HB96 whole entry, further chain): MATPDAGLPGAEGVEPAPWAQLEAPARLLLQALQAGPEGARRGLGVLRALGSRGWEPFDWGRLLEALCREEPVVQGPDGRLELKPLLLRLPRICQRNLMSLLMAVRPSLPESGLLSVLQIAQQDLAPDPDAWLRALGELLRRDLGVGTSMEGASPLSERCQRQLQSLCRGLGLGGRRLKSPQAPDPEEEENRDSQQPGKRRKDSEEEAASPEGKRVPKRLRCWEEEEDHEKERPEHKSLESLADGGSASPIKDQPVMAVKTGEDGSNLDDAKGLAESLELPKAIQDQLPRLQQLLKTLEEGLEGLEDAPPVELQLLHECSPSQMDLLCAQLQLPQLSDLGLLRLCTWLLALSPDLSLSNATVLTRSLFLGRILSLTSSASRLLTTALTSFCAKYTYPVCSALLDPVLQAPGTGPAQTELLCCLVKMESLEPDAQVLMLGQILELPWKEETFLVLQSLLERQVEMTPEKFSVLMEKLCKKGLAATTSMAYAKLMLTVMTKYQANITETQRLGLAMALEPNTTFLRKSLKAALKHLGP
T1 sequence (Q9NPI8 whole entry, further chain): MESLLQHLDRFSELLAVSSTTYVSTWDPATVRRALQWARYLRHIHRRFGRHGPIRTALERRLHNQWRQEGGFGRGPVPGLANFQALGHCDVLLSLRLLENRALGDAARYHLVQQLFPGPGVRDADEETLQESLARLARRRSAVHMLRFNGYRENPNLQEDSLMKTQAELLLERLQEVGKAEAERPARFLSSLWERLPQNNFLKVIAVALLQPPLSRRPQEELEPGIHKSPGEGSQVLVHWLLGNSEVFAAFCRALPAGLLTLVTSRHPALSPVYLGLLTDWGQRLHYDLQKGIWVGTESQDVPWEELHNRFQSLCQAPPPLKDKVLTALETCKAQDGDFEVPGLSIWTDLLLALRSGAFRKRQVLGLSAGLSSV
Text: The inhibitor assay includes recombinant ubiquitin, ubiquitin activating enzyme, FANCT, FANC-B-L-100, FANC-C-E-F, FANCI, FANCD2 and dsDNA[41] (Fig. 2a). For the activator assay, the activity stimulating adaptor complex FANC-C-E-F is omitted to give a baseline FANCD2-ubiquitination signal which enables a greater dynamic range to detect activation of the E3 ligase sub complex FANCB-L-100 (Fig. 2b,c). […] The gel-based FANCD2 mono-ubiquitination assay that we published previously[26] was modified to give a chemi-luminescent readout using a proximity assay (Materials and methods) (Fig. 1b). The purified proteins in the mono-ubiquitination assays used for the high-throughput screen are biotinylated-ubiquitin (b-ubiquitin), His-UBE1, FANCT, Flag-FANCB, FANCL, FAAP100, MBP-FANCC, FANCE, FANCF, GST-XlFANCD2 and Flag-XlFANCI. The assay was calibrated for maximal signal to background and for an optimal dynamic range within which small molecule modulators could be detected in a 384-well plate format. […]
For high-throughput screening, FANCD2 mono-ubiquitination was measured with a proximity assay (AlphaScreen, Perkin Elmer). […] The 520–620 nm signal provides a read out of FANCD2 mono-ubiquitination. […] All protein concentrations in the assay were determined by titration of each component for optimal activity (Fig. 2). […]

| Structure (SMILES) | effect on FANCD2 foci formation [1] | FANCD2 foci ([1]; SUM149 parental cells) | also measured |
| --- | --- | --- | --- |
| O=C(c1cc(Cc2n[nH]c(=O)c3ccccc23)ccc1F)N1CCN(C(=O)C2CC2)CC1 [olaparib] | increased FANCD2 foci formation |  | survival (SUM149.B1.S* cells): 78.1%; survival (SUM149 cells): 33.3% |
| C[C@]1(c2nc3c(C(N)=O)cccc3[nH]2)CCCN1 [veliparib] | increased FANCD2 foci formation |  |  |
| CNCc1ccc(-c2[nH]c3cc(F)cc4c3c2CCNC4=O)cc1 [rucaparib] | increased FANCD2 foci formation |  |  |
| CO[C@@]12[C@H](COC(N)=O)C3=C(C(=O)C(C)=C(N)C3=O)N1C[C@@H]1N[C@@H]12 [MMC, mitomycin C] |  | 5.45 |  |
| NS(=O)(=O)OC[C@H]1C[C@@H](Nc2ccnc3cc(-c4cccc(SC(F)(F)F)c4)nn23)[C@H](O)[C@@H]1O [TAK243] |  | 0.28 | inhibition of the FANCD2 mono-ubiquitination reaction [2]: > 50%; toxicity in the foci assay ([1]; SUM149 parental cells): highly toxic |
| NC(=O)c1cccc2cn(-c3ccc([C@@H]4CCCNC4)cc3)nc12 [niraparib] | increased FANCD2 foci formation |  |  |
